# Assay results as given in US20130040882A1, “USE OF FIBROBLAST GROWTH FACTOR FRAGMENTS” (NOVARTIS AG, priority 2003, published 2013).
# Read-outs that look alike come from different tables or passages of the source.
# Test system: transcript levels in tissues (GH/IGF and glucagon/insulin axes, SSTR signalling)
# Format: in vivo, cynomolgus monkeys
# [1] = RNA expression fold change, brown fat
# [2] = RNA expression fold change, pancreas
# [3] = RNA expression fold change, pituitary
substance,measurement,setting,value
cyclo[4-(NH2—C2H4—NH—CO—O)Pro-Phg-DTrp-Lys-Tyr(4-Bzl)-Phe] [SOM230],Gene expression (AvgDiff): IGF-1,BROWN FAT,389
same,Gene expression (AvgDiff): IGFBP 4,BROWN FAT,763
same,Gene expression (AvgDiff): IRS 2,BROWN FAT,146
same,Gene expression (AvgDiff): SSTR3,BROWN FAT,194
same,Gene expression (AvgDiff): IGF-1,PANCREAS,89
same,Gene expression (AvgDiff): SSTR2,PANCREAS,156
same,Gene expression (AvgDiff): GR,PITUITARY,109
same,Gene expression (AvgDiff): IGF-2,PITUITARY,70
same,"Gene expression (AvgDiff): IGFBP, acid labile subunit",PITUITARY,83
same,Gene expression (AvgDiff): SSTR3,PITUITARY,57
same,"Actin related protein 2/3 complex, subunit 1A (41 kD) ↓",[1],(41 kD) ↓ x2.5
same,"Adrenergic, β-3-, receptor ↑",[1],receptor ↑ x2.5
same,Apotosis-associated tyrosine kinase ↑,[1],tyrosine kinase ↑ x3.5
same,CD2 antigen (cytoplasmic tail)-binding protein 2 ↑,[1],protein 2 ↑ x2.5
same,CSF 1 (macrophage) ↓,[1],↓ x2
same,CSF 3 receptor (granulocyte) ↑,[1],(granulocyte) ↑ x3
same,"Ca++ channel, voltage dependent, α 1H subunit ↑",[1],↑ x3
same,"Cadherin 5, VE-cadherin (vascular epithelium) ↑",[1],(vascular epithelium) ↑ x3
same,"Cadherin 13, H-cadherin (heart) ↓",[1],(heart) ↓ x2
same,Cadherin F1B1 ↓,[1],Cadherin F1B1 ↓ x4
same,Calcium/calmodulin-dependent protein kinase I ↓,[1],kinase I ↓ x3.5
same,"Capping protein (actin filament), gelsolin-like ↓",[1],↓ x2.5
same,Coagulation factor XIIIAI subunit precursor ↓,[1],↓ x5
same,Cyclin T2 ↑,[1],Cyclin T2 ↑ x2.5
same,Dopamine receptor D3 ↑,[1],x2.5
same,Dual specificity PP MKP-5 ↑,[1],MKP-5 ↑ x2.5
same,EGF receptor pathway substrate 15 ↓,[1],substrate 15 ↓ x2
same,Endothelial cell GF 1 (platelet derived) ↓,[1],(platelet derived) ↓ x2
same,"Endothelial differentiation, sphingolipid G-protein-coupled receptor, 5 ↑",[1],"coupled receptor, 5 ↑ x2.5"
same,FSHR ↑,[1],FSHR ↑ x2.5
same,Fms-related tyrosine kinase 1 (VEGF/vascular permeability factor receptor) ↓,[1],receptor) ↓ x4.5
same,Follistatin-like 3 glycoprotein ↑,[1],glycoprotein ↑ x3
same,G1 to S phase transition ↓,[1],↓ x1.5
same,G protein-activated inwardly rectifying K+ channel ↑,[1],channel ↑ x3.5
same,G protein-coupled receptor 1 ↓,[1],receptor 1 ↓ x2.5
same,G α inhibiting activity polypeptide 3 interacting protein ↓,[1],protein ↓ x5
same,"GLUR, metabotropic 1 ↑",[1],↑ x2
same,"Guanine nucleotide binding protein (G protein), β polypeptide 3 ↑",[1],↑ x2.5
same,IFN induced transmembrane protein 1 ↑,[1],↑ x2.5
same,IFN γ-inducible protein 30 (IP30) ↓,[1],30 (IP30) ↓ x3.5
same,IGF-1 ↓,[1],IGF-1 ↓ x1.5
same,IGF-binding protein 4 ↓,[1],↓ x2
same,"IL 3 (CSF, multiple) ↑",[1],↑ x2
same,"IL 5R, α ↑",[1],"IL 5R, α↑ x2.5"
same,IL 7R precursor ↑,[1],IL 7R precursor ↑ x2
same,IRS (insulin receptor substrate) 2 ↑,[1],substrate) 2 ↑ x2.5
same,Neuroblastoma apoptosis-related RNA bindingprotein ↓,[1],bindingprotein ↓ x3
same,Neuroblastoma ↓,[1],Neuroblastoma ↓ x2.5
same,"Oxytocin, prepro-(neurophysin I) ↑",[1],(neurophysin I) ↑ x2.5
same,PCNA ↓,[1],PCNA ↓ x2.5
same,"PI glycan, class F ↓",[1],"PI glycan, class F ↓ x2"
same,"PI glycan, class L ↑",[1],"PI glycan, class L ↑ x3.5"
same,"PI-3-kinase. regulatory subunit, polypeptide 2 (p85 β) ↓",[1],(p85 β) ↓ x3.5
same,PLC β4 ↑,[1],PLC β4 ↑ x2
same,"PP 2, regulatory subunit B (B56), γ isoform ↓",[1],"B (B56), γ isoform ↓ x1.5"
same,"PP 5, catalytic subunit ↑",[1],↑ x2.5
same,"Pentaxin-related gene, rapidly induced by IL-1 ↓",[1],↓ x7.5
same,T3 receptor ↑,[1],T3 receptor ↑ x2
same,TGF β3 ↑,[1],TGF β3 ↑ x2.5
same,TGF β-activated kinase-binding protein 1 ↑,[1],binding protein 1 ↑ x2.5
same,THR interactor 10 ↓,[1],THR interactor 10 ↓ x3
same,THR interactor 12 ↓,[1],↓ x1.5
same,TNF type 1 receptor associated protein ↓,[1],associated protein ↓ x2
same,VGF nerve growth factor inducible ↑,[1],factor inducible ↑ x2
same,"BCL2/adenovirus E1B 19 kD-intracting protein 1, isoform BNIP1-a ↓",[2],BNIP1-a ↓ x1.5
same,CRHR 1 ↓,[2],CRHR 1 ↓ x2
same,"Ca++ channel, voltage dependent, α 1F subunit ↓",[2],↓ x4.5
same,Cdki 1C ↑,[2],Cdki 1C ↑ x2
same,Chymotrypsin-like ↑,[2],↑ x3.5
same,Cyclin D1 ↑,[2],Cyclin D1 ↑ x2
same,Cyclin T2 ↓,[2],Cyclin T2 ↓ x2
same,G-CSF protein ↓,[2],G-CSF protein ↓ x2
same,"GLUR precursor, flip isoform ↑",[2],flip isoform ↑ x3
same,Gastrin-releasing peptide receptor ↓,[2],peptide receptor ↓ x5
same,IFN regulatory factor 3 ↑,[2],factor 3 ↑ x5
same,IGF-1 ↑,[2],IGF-1 ↑ x4.5
same,IL 1 receptor antagonist ↓,[2],antagonist↓ x2
same,IP-1-phosphatase ↑,[2],↑ x2.5
same,Integrin α2b precursor ↑,[2],precursor ↑ x1.5
same,"K+ voltage-gated channel, KQT-like subfamily, member3 ↓",[2],↓ x2.5
same,"Na+ channel, voltage-gated, type I, β polypeptide ↑",[2],β polypeptide ↑ x2
same,Neuroblastoma apoptosis-related RNA bindingprotein ↓,[2],↓ x3
same,PDGFR α ↑,[2],PDGFR α ↑ x2.5
same,"PDGFR, α polypeptide ↑",[2],α polypeptide ↑ x1.5
same,"PI-4-kinase, catalytic, α polypeptide ↑",[2],α polypeptide ↑ x1.5
same,"PL A2, group IVC (cytosolic, calcium-independent) ↑",[2],independent) ↑ x1.5
same,Phosphotyrosine independent ligand p62B for the Lck SH2 domain B-cell isoform ↓,[2],isoform ↓ x2
same,Prostacyclin synthase ↑,[2],↑ x2
same,SSTR2 ↓,[2],SSTR2 ↓ x1.5
same,Smad 3 ↓,[2],Smad 3 ↓ x1.5
same,THR binding protein ↓,[2],↓ x2
same,THR interactor 10 ↑,[2],↑ x2.5
same,Thrombospondin 2 ↑,[2],↑ x3.5
same,1-PI-4-phosphate 5-kinase isoform C ↓,[3],kinase isoform C ↓ x1.5
same,ANP (atrial natriuretic peptide precursor B) ↑,[3],peptide precursor B) ↑ x2
same,ATP(GTP)-binding protein ↑,[3],protein ↑ x1.5
same,"ATPase, Ca++ transporting cardiac muscle, slow twitch 2 ↑",[3],↑ x1.5
same,"ATPase, H+/K+ exchanging, α polypeptide ↓",[3],↓ x5
same,"ATPase, Na+/K+ transporting, α2(+) polypeptide ↑",[3],polypeptide ↑ x2.5
same,"ATPase, Na+/K+ transporting, β3 polypeptide ↑",[3],polypeptide ↑ x2.5
same,Adrenomedullin ↑,[3],Adrenomedullin ↑ x2.5
same,Arg PTK-binding protein ↓,[3],protein ↓ x2.5
same,BCL2-antagonist of cell death ↑,[3],death ↑ x2
same,BCL2-associated athanogene ↑,[3],athanogene ↑ x2
same,BCL2/adenovirus E1B 19 kD-interacting protein 3 ↑,[3],↑ x1.5
same,Bax γ ↑,[3],Bax γ ↑ x1.5
same,Brain cannabinoid receptor 1 ↑,[3],receptor 1 ↑ x2
same,Butyrate response factor 2 (EGF-response factor 2) ↑,[3],↑ x3
same,CC chemokines STCP-1 ↑,[3],↑ x1.5
same,CD36 antigen ↓,[3],CD36 antigen ↓ x2
same,Calcium/calmodulin-dependent protein kinase I ↑,[3],kinase I ↑ x2.5
same,"Catenin (cadherin-associated protein), α1 (102 kD) ↓",[3],α1 (102 kD) ↓ x1.5
same,"Cdki2C (p18, inhibits CDK4) ↑",[3],CDK4) ↑ x2
same,"Cdki2D (p19, inhibits CDK4) ↑",[3],CDK4) ↑ x1.5
same,Cell division cycle 25B ↑,[3],↑ x5
same,Cholecystokinin receptor ↓,[3],receptor ↓ x4.5
same,"Cholinergic receptor, muscarinic 3 ↓",[3],muscarinic 3 ↓ x3
same,"Cholinergic receptor, nicotinic, β polypeptide 4 ↓",[3],β polypeptide 4 ↓ x2
